The text below walks through data of US20100248390A1, “COMPOSITIONS AND METHODS FOR IDENTIFYING LIGANDS OF ODORANT RECEPTORS” (DUKE UNIVERSITY, priority 2009, published 2010).

Each structure is given as a SMILES string.

For experiment [1], the target named is T1, mouse odorant receptors (ORs) (Mus musculus, UniProt Q8VGS3).
T1 construct: OR open reading frames were amplified from genomic DNA; expressed in transfected cells; host or cells: Hana3A cells, co-transfected with RTP1S, CRE-luciferase and pRL-SV40
T1 sequence (Q8VGS3 1-310): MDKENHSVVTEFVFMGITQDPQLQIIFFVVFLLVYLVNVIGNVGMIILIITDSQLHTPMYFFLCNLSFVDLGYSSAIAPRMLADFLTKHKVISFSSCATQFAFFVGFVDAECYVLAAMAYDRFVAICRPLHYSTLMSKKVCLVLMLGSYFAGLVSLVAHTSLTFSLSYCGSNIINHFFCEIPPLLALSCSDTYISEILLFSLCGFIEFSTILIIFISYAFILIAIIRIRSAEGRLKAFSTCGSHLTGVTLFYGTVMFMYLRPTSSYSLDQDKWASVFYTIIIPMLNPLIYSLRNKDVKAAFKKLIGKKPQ
The experiment can be described thus: CRE-luciferase assay of odorant receptor activation (Dual-Glo, Hana3A cells, RTP1S), dose-response EC50. In kind it is cell-based. To be noted: receptor MOR180-1; read-out: log EC50 of odorant at MOR180-1 (0 = no response) (converted).

Experiment [2] addresses T2, mouse odorant receptors (ORs) (Mus musculus, UniProt Q9JHB2).
T2 construct: OR open reading frames were amplified from genomic DNA; expressed in transfected cells; host or cells: Hana3A cells, co-transfected with RTP1S, CRE-luciferase and pRL-SV40
T2 sequence (Q9JHB2 1-309): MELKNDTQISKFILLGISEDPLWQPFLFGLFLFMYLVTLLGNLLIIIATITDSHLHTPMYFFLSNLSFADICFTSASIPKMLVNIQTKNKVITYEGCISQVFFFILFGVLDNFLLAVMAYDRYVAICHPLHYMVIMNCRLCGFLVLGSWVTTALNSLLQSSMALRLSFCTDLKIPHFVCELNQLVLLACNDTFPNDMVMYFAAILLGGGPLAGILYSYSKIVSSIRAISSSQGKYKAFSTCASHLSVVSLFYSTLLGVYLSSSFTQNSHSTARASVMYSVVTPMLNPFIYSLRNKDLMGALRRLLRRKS
The description is as above. In kind it is cell-based. To be noted: receptor MOR140-1.

`CC(=O)Oc1ccccc1` [Phenyl acetate]: in experiment [1], the EC50 is 661 µM.
Consider `CCCCCC1=C(C)CCC1=O` [Dihydroiasmone], for which the “log EC50 (Table 4 value), MOR140-1” value in experiment [2] was −3.614.

As usually defined, the EC50 is the midpoint of the concentration-response curve.
